Drawing on ChEMBL document CHEMBL1201862, “PubChem BioAssay data set” (2004), this text covers AC50, IC50 and EC50 for three compounds.

Active and inactive are the calls of the source.

Assay [1] addresses CAAX prenyl protease 2 (Saccharomyces cerevisiae S288c, UniProt Q03530). It is filed as biochemical.
A further assay addresses Trypsin (Sus scrofa, UniProt P00761). Briefly: porcine trypsin inhibitors, dose response, selectivity assay for Rce1 protease inhibitor project, biochemical, quenched peptide fluorescence, cherry-pick (AID 488789).
Assay [2] addresses CAAX prenyl protease 2 (Homo sapiens, UniProt Q9Y256). Nature of the assay: human Rce1 protease inhibitors, dose response, biochemical, yeast membranes, quenched-peptide fluorescence, cherry-pick (AID 588849).
In assay [3] the target is T1, Voltage-gated N-type calcium channel alpha-1B subunit/Amyloid beta A4 precursor protein-binding family A member 1 (Homo sapiens, UniProt Q00975+Q02410). It is filed as protein assay.
T1 sequence (Q00975 whole entry, the tested form may be a part): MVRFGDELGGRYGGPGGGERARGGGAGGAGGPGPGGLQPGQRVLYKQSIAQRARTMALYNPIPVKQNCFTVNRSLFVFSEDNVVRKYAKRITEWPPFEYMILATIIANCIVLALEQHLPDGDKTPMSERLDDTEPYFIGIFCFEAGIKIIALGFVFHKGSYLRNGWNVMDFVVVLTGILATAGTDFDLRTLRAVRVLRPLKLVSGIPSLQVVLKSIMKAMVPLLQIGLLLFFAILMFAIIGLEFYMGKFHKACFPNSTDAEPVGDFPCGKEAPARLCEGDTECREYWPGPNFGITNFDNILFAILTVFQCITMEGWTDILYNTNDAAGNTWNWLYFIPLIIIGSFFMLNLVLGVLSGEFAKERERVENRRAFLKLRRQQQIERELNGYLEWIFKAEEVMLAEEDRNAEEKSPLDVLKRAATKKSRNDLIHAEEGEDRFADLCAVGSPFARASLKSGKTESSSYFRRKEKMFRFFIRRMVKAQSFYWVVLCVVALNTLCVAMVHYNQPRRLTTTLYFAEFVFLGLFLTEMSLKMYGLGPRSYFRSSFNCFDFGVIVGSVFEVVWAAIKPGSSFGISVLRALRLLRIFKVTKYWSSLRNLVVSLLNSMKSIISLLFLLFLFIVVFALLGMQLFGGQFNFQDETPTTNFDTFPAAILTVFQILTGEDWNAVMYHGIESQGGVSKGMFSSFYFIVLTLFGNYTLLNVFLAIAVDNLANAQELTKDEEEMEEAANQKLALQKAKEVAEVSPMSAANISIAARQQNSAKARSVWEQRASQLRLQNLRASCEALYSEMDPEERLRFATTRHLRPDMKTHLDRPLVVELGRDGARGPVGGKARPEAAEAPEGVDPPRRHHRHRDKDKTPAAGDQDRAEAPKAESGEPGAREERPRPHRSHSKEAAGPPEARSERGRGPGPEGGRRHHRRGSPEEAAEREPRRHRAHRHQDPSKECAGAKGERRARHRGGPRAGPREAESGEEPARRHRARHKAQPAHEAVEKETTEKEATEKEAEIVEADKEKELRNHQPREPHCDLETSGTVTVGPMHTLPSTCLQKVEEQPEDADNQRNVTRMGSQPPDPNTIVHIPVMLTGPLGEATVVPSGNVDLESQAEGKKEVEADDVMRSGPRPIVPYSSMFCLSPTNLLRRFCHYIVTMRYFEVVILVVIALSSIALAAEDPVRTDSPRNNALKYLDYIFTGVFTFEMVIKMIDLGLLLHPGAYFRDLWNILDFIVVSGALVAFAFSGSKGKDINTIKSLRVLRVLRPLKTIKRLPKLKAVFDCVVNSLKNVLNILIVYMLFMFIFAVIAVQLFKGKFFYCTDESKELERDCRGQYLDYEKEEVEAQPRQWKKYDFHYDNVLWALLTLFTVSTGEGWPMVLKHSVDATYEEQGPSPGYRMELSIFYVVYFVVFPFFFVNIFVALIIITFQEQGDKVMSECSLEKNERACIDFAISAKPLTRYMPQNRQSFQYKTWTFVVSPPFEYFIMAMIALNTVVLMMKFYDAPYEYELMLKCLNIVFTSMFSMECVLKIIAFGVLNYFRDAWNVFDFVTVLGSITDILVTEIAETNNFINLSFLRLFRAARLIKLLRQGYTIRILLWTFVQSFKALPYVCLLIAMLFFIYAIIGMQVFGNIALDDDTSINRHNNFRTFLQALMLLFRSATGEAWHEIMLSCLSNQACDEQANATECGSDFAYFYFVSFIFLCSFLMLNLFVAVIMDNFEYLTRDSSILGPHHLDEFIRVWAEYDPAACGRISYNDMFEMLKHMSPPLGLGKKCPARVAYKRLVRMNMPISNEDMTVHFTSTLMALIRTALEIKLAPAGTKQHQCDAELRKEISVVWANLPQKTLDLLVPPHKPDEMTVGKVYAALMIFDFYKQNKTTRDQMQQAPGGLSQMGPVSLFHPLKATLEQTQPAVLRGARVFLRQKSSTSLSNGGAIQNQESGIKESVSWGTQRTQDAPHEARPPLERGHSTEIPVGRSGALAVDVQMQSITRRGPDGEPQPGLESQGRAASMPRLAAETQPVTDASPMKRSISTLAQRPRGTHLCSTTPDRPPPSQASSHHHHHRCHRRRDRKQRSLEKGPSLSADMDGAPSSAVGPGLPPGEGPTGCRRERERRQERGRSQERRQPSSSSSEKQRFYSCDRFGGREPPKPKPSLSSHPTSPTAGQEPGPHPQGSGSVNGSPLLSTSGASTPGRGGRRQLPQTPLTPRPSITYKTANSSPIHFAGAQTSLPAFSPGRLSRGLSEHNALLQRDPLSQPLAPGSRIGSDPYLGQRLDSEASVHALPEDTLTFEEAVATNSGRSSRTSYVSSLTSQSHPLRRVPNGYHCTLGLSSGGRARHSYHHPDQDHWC
T1 sequence (Q02410 whole entry, the tested form may be a part): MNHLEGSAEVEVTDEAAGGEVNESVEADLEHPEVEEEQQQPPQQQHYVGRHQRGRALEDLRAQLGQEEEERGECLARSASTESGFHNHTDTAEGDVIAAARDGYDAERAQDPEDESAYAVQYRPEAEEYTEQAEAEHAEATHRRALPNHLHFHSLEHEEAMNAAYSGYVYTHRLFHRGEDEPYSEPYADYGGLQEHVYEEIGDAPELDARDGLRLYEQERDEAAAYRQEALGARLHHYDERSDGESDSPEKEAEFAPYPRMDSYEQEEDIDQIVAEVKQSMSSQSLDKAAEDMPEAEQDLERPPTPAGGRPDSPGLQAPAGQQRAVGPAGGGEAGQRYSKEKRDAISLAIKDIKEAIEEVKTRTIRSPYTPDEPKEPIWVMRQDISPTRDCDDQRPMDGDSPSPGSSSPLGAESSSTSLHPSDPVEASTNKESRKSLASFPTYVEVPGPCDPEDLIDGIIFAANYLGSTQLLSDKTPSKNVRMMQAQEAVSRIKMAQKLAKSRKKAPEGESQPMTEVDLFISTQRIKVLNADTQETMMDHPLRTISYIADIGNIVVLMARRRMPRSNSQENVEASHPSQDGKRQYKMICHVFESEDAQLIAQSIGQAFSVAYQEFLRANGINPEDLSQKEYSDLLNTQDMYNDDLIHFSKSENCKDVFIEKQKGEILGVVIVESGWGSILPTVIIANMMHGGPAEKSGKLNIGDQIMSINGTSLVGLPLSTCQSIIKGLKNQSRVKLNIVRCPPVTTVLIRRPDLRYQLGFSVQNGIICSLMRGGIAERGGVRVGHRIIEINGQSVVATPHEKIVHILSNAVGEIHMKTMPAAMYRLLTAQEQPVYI
Assay [4] in a line: Fluorescence-based cell-based high throughput dose response assay for inhibitors of the interaction of nucleotide-binding oligomerization domain containing 2 (NOD2) and the receptor-interacting serine-threonine kinase 2 (RIPK2). The class given is functional. To be noted: Homo sapiens.
For another assay, the system named is CHO-K1. Briefly: Counterscreen for antagonists of the orexin 1 receptor (OX1R; HCRTR1): Homogeneous time resolved fluorescence (HTRF)-based cell-based dose response assay to identify antagonists of the parental CHO-K1 cell line. [Related pubchem assays (depositor defined):AID434989, AID435008, AID463079, AID485270, AID492963, AID492964, AID492965, AID493232, AID504699, AID504701]. It is filed as functional. To be noted: Cricetulus griseus.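 Further: potency for inhibition of ATP-stimulated IP1 production as antagonists.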

The target in assay [5] is Heat shock protein HSP 90-alpha (Homo sapiens, UniProt P07900). It is filed as functional, organism-based.
In assay [6] the target is Sphingosine 1-phosphate receptor 1 (Homo sapiens, UniProt P21453). It is filed as functional.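 Further: Tango beta-arrestin reporter U2OS cells stimulated with S1P near its EC80; inhibitor potency meaning antagonism of receptor activation by the natural agonist.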
Chain of Sphingosine 1-phosphate receptor 1 (P21453 whole entry): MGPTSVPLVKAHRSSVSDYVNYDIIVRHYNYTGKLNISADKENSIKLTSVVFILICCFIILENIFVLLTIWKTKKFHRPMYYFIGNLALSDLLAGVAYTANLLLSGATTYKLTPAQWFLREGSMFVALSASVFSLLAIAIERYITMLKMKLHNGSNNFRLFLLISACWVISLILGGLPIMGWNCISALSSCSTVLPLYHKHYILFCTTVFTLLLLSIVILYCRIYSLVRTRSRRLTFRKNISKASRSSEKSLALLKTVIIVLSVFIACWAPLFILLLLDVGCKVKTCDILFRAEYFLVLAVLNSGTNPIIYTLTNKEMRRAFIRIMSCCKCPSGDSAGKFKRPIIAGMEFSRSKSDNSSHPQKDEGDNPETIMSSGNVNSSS
In assay [7] the target is T2, Orexin/Hypocretin receptor type 1 (Homo sapiens, UniProt O43613).
T2 sequence (O43613 whole entry): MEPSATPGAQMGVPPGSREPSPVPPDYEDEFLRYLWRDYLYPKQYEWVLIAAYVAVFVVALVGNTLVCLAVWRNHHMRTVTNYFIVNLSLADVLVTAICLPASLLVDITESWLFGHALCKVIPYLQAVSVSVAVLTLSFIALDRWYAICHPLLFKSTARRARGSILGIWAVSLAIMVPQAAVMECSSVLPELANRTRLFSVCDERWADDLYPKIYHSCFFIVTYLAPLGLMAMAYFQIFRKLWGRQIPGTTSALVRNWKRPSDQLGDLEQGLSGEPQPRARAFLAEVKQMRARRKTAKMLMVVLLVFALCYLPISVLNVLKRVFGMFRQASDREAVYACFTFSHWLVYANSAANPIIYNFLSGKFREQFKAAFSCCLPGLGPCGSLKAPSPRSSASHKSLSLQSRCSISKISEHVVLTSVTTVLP
Briefly: Fluorescence-based cell-based high throughput dose response assay for antagonists of the orexin 1 receptor (OX1R; HCRTR1). [Related pubchem assays (depositor defined):AID434989, AID435008, AID463079, AID485270, AID492963, AID492964, AID492965, AID493232, AID504717, AID504718]. The class given is functional.

Assay [8] in a line: Counterscreen for antagonists of the orexin 1 receptor (OX1R; HCRTR1): Fluorescence-based cell-based high throughput dose response assay to identify antagonists of the parental CHO cell line. [Related pubchem assays (depositor defined):AID434989, AID435008, AID463079, AID485270, AID492963, AID492964, AID492965, AID493232, AID504699, AID504701]. The class given is functional. A general note: A counterscreen serves to expose hits that act by an unwanted route or on another target.

In assay [9] the target is T1, Voltage-gated N-type calcium channel alpha-1B subunit/Amyloid beta A4 precursor protein-binding family A member 1. The class given is protein assay. This is another data set of the same source.
The nature of assay [10]: Luminescence Cell-Based Dose Confirmation HTS to Identify Inhibitors of Platelet Dense Granule Release. [Related pubchem assays: 1663 (Primary HTS), 1678 (Summary of Project)]. It is filed as functional.
The target of assay [11] is Luciferin 4-monooxygenase (Photinus pyralis, UniProt P08659). Nature of the assay: firefly luciferase enzyme inhibitors, dose response, biochemical, luminescence (AID 1891).
Chain of Luciferin 4-monooxygenase (P08659 whole entry): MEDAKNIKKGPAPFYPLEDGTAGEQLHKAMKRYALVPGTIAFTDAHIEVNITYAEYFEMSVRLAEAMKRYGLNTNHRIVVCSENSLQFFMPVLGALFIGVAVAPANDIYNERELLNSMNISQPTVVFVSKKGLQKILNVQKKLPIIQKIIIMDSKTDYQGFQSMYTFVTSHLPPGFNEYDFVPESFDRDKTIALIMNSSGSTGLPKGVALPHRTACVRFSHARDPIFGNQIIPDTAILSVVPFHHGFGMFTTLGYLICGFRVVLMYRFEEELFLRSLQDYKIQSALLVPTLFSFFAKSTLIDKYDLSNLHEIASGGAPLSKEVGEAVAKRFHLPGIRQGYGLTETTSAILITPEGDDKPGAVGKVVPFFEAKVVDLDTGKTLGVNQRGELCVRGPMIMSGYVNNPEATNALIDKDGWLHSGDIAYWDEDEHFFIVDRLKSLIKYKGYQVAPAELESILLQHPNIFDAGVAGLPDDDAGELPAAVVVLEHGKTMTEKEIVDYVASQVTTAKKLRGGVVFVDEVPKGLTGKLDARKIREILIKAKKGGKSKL
Assay [12] has as its target T2, Orexin/Hypocretin receptor type 1. Nature of the assay: Homogeneous Time Resolved Fluorescence (HTRF)-based cell-based high throughput dose response assay for antagonists of the orexin 1 receptor (OX1R; HCRTR1). [Related pubchem assays (depositor defined):AID434989, AID435008, AID463079, AID485270, AID492963, AID492964, AID492965, AID493232, AID504717, AID504718]. The class given is functional. On the technique in general: Time-resolved FRET reads energy transfer from a long-lived donor to a nearby acceptor.

For assay [13], the target named is T3, Sphingosine 1-phosphate receptor 4 (Homo sapiens, UniProt O95977).
T3 sequence (O95977 whole entry): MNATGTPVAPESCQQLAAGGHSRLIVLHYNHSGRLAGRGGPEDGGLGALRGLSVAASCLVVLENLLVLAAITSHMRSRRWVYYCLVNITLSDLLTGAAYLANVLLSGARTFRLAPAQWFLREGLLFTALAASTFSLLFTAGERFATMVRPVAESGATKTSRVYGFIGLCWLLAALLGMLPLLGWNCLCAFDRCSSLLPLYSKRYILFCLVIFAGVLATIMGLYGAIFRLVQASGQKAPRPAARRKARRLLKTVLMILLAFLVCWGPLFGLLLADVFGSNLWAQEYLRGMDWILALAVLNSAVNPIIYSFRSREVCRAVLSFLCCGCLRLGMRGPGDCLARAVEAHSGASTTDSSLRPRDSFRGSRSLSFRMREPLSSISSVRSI
Briefly: Fluorescence dose response cell-based high throughput screening assay for antagonists of the Sphingosine 1-Phosphate Receptor 4 (S1P4). [Related pubchem assays: 1524 (Confirmation in triplicates.), 1510 (Primary screen.)]. The class given is functional.

The target in another assay is Beta Lactamase (Pseudomonas aeruginosa, UniProt Q932Y6). Nature of the assay: beta-lactamase reporter inhibitor potency, dose response, artefact control for NOD2-RIPK2 interaction inhibitor project, BLA reporter cells, FRET fluorescence (AID 651552). It is filed as functional, cell-based.
A further assay deals with T4, Coagulation factor XII (Homo sapiens, UniProt P00748).
T4 sequence (P00748 whole entry): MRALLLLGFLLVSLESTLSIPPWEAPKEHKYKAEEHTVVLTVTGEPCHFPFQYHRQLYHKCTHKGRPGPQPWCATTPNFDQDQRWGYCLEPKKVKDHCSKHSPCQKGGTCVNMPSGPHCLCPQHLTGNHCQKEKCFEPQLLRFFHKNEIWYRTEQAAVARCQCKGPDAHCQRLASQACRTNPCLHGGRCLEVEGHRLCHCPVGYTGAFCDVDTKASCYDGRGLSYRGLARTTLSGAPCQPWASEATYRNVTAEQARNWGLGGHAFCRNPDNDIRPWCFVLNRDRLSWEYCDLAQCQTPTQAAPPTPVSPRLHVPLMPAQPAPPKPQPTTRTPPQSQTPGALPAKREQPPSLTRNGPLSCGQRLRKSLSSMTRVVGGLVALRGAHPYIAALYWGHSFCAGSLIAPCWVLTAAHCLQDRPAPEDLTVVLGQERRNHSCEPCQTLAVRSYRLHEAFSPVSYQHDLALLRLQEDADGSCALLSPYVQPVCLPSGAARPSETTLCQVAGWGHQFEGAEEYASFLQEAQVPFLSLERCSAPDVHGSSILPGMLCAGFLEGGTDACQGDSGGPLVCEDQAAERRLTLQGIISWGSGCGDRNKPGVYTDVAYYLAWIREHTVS
Briefly: FXIIa inhibitor potency, concentration-response, biochemical (AID 716). It is filed as functional.

Chain of CAAX prenyl protease 2 (Saccharomyces cerevisiae S288c, UniProt Q03530) (Q03530 whole entry): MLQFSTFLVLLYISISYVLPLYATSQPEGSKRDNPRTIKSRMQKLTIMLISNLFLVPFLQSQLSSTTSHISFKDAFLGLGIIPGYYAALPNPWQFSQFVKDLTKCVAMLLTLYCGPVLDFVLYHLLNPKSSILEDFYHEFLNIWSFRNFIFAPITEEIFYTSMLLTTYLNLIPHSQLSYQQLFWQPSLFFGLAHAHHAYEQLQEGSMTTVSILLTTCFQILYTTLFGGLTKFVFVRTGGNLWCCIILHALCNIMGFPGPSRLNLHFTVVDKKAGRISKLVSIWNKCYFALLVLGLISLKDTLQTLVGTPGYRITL
Chain of CAAX prenyl protease 2 (Homo sapiens, UniProt Q9Y256) (Q9Y256 whole entry): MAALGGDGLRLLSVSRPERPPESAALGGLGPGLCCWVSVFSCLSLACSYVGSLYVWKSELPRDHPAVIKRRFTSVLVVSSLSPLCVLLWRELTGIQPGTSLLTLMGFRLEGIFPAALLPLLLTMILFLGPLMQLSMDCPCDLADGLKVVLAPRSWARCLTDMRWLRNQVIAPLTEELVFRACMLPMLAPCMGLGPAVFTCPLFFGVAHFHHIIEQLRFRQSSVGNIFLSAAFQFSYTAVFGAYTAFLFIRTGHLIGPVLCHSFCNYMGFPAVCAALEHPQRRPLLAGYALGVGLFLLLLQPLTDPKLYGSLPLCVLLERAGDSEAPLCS
Chain of Trypsin (P00761 whole entry): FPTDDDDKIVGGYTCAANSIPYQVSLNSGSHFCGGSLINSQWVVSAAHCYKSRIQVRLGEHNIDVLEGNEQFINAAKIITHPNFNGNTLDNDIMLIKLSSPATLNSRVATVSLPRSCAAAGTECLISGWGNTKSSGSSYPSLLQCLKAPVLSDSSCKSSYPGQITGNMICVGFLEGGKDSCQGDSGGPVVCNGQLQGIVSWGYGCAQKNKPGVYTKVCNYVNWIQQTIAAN

As a reminder, the AC50 is the concentration giving half of the maximal activity seen. In the case of `CC1(C(=O)N(CC(=O)NC2CCCC2)Cc2ccccc2)CC(=O)N=C2C=CC=CN21` (configuration not stated), the figures for the AC50 on CAAX prenyl protease 2 [1], at Trypsin and on CAAX prenyl protease 2 [2] were 4.24 µM (active), 4.57 µM (active) and 2.75 µM (active), respectively.

One may read the IC50 as the concentration needed to halve the response being measured. For orientation: EC50 means the concentration that produces a half-maximal response. On to `O=C1C=C(c2ccc(Cl)cc2)C(=O)N1Nc1ccccc1`, for which the half-maximal inhibitory concentration (IC50) is 21.1 µM (active) in [3]; 1.03 µM (active) in assay [4]; 50.7 µM (inactive) in the assay with CHO-K1; 13.6 µM (not active) in [6]; 3.12 µM (active) in [7]; 4.98 µM (active) in [8]. Further, the IC50 in [9] is > 50 µM (inactive); in [12], 3.73 µM (active); in [13] it was 1.95 µM (active); at Beta Lactamase it was 13 µM (inactive). The AC50 in assay [5] was 267 nM (active). Further, the EC50 was 21.5 µM (active) in assay [10] and > 112 µM (not active) in assay [11].

In the case of `CC(C)NC(=O)CCCc1cn(C)c2ccccc12`, the IC50 at Coagulation factor XII is > 50 µM (inactive).
